Here are results for three compounds from patent publication US11096967B2, “Pharmaceutical composition for preventing or treating regulatory T cell-mediated diseases” (SCM LIFESCIENCE CO., LTD., priority 2016, dated 2021).

Common to all, as to format: cell-based, human
One assay has as its system ICOSL. Briefly: ICOSL induction in hcMSC by priming factors (qRT-PCR, RT-PCR). As to conditions: for levels of ICOSL mRNA in hcMSCs: IL-1β 10 ng/mL, TNF-α 10 ng/mL, LPS 2 μg/mL, qRT-PCR. The source says:
It has been known that the immunosuppressive activity of MSCs can be influenced by various priming or appropriate stimulations. It was confirmed that ICOSL expression in hcMSCs correlated with Treg induction. Thus, it was expected that ICOSL expression was enhanced to increase Treg and to strengthen the immunosuppressive function of hcMSCs. To confirm this expectation, an experiment was first carried out to confirm pro-inflammatory cytokine that can induce ICOSL expression. First, to find appropriate priming factors, hcMSCs were treated with IL-1β (10 ng/mL), TNF-α (10 ng/mL) and LPS (2 μg/mL) for 24 hours. Then, ICOSL expression was determined after 1 hour and 3 hours though qRT-PCR. Further, in order to confirm whether the expression of IL-1R in hcMSC was changed by […] treatment, the expression of IL-1R in hcMSC was confirmed after treatment with IL-1β for 24 hours. The results are illustrated in FIG. 16.

Assay [1] relates to PI3K-Akt signaling pathway. Briefly: Akt phosphorylation in CD4^+ T cells (Western blotting). As to conditions: pre-treatment 30 min; LY294002 5 μM, GSK690693 1 μM. Here is the method:
Five independent experiments were carried out. […] After 2 days, hcMSCs were washed three times with cold phosphate-buffered saline (PBS) containing 0.05 mM ethylenediamine tetraacetic acid (EDTA) to detach lymphocytes from hcMSCs. Then, hcMSCs were trypsinized and washed twice with cold PBS-EDTA solution and stained with phycoerythrin (PE)-conjugated ICOSL antibody (BioLegend) to analyze ICOSL expression.
More particularly, CD4^+ T cells were pre-treated with LY294002 (5 μM) and GSK690693 (1 μM) for 30 min. […] Total Akt was determined.
In general terms: A western blot detects proteins with antibodies after separation by electrophoresis.

The subject of another assay is CD4^+ T cells. Briefly: Effect of PI3K-Akt inhibitors on rhICOSL- or hcMSC-induced Treg induction. The conditions noted are these: 2 days; LY294002 5 μM, GSK690693 1 μM. As for the experimental part:
Akt inhibitor […] (Calbiochem, San Diego, Calif., USA) was used at a concentration of 1 μM and LY294002 (Cell Signaling Technology, Danvers, Mass., USA) was used at concentration of 5 to 10 μM. […] Total Akt was determined. […] The results are illustrated in FIG. 14.

For the compound “IL-1β: pro-inflammatory cytokine used as priming factor for hcMSCs”, the “levels of ICOSL mRNA in hcMSCs” value is listed as “highest effect” with ICOSL and “increased” in the assay on ICOSL (listed as IL-10). Besides, the “expression of IL-1R mRNA in hcMSC” value in the assay with ICOSL (IL-1β 10 ng/ml, 24 hours) was “did not change the expression of IL-1R mRNA”.

For the compound TNF-α, in the assay on ICOSL, the “levels of ICOSL mRNA in hcMSCs” value was “increased”.

As to `CCn1c(-c2nonc2N)nc2c(C#CC(C)(C)O)ncc(OC[C@H]3CCCNC3)c21` [GSK690693], the “rhICOSL-induced Akt phosphorylation” value in assay [1] is reported as “marked decrease in Akt phosphorylation”. The “rhICOSL or hcMSC-induced Tregs” value with CD4^+ T cells is recorded as “decreased”.
